According to PubChem BioAssay AID2060356 (Molecular Pharmacology Branch, DTP, NCI, 2025):
Several values for one entry are separate records, joined by “and”; a condition that tells them apart may be missing. Equal values may be shown once.

System: PDC tumor spheroids with HUVEC/MSC, viability
Assay: Anticancer human tumor 439559-082-T-J2-PDC patient-derived colon adenocarcinoma cell line growth inhibition [TAK]
Settings: for viability, T/C: stronger effect = lower value; active = viability on the fitted dose curve at most 10% of control; inactive = the rest
Text: Combinatorial screen of targeted agents with TAK-243 and ipatasertib in multi-cell type tumor spheroids
A high-throughput screen of multi-cell type tumor spheroids was designed to identify active combinations of targeted small molecules and TAK-243 or ipatasertib. Complex spheroids include a stromal component modeled by human endothelial cells (HUVEC) and fibroblasts modeled by human mesenchymal stem cells (MSCs). The concentration ranges selected for each drug and investigational agent were based upon clinically achievable concentrations if the clinical Cmax of the agent was known.
Compounds. The drugs and investigational agents: TAK-243 (785004), ipatasertib (767898), everolimus (733504), selumetinib (741078), bortezomib (756655), trametinib (758246), ixazomib (758254), vemurafenib (761431), dabrafenib (764134), sapanisertib (764658), alpelisib (765974), and copanlisib (816437), were obtained from the National Cancer Institute (NCI) Developmental Therapeutics Program Chemical Repository. The FDA-approved anticancer drug set is available from the NCI Developmental Therapeutics Program. […] The stock solutions were prepared in dimethyl sulfoxide (DMSO, Sigma-Aldrich, St. Louis, MO, cat. D2650) at 800-fold the tested concentration and stored at -70 degrees C prior to their use. All drugs and investigational agents were tested over a range starting from a high concentration at or near the clinical Cmax and decreasing in half-log increments. If the clinical Cmax for an agent had not been determined, the highest concentration tested was 10 microM.
NCI60 Cell Culture. NCI60 cell lines were obtained from the NCI Developmental Therapeutics Program Tumor Repository. For each lot of cells, the Repository performed Applied Biosystems AmpFLSTR Identifiler testing with PCR amplification to confirm consistency with the published Identifier STR profile for each cell line. Cells were kept in continuous culture for no more than 20 passages. The optimal seeding densities for each of the cell lines at each time point assessed were determined prior to performing the concentration response studies. Briefly, the NCI60 human tumor lines were grown as monolayers in RPMI 1640 medium supplemented with 10% FBS and 2 mmol/L L-glutamine.
An additional 2 lines were from the NCI60 cell line panel including melanomas, MALME-3M and SK-MEL-2. Pooled donor human umbilical vein endothelial cells (HUVEC, Lonza, cat. CC-2519) and human mesenchymal stem cells (hMSC, Lonza, cat. PT-2501) were purchased from Lonza (Walkersville, MD).
PDMR cell lines were grown in complete medium (DC medium): Dulbecco's modified Eagle's medium (DMEM)/F12 supplemented with 5% fetal bovine serum (FBS), 2 mM L-glutamine, 100 U/mL penicillin and 100 µg/ml streptomycin, 0.4 µg/ml hydrocortisone, 10 ng/ml epidermal growth factor (EGF) recombinant human protein, 24 µg/mL adenine, and 0.1 mg/mL primocin. During culture from frozen stock vials, PDMR cells were cultured in the same medium containing 10 µM Y-27632 (see Table 3). The PDCs were cultured in complete DMEM/F12 media without 10 microM Y-27632 dihydrochloride for at least two passages prior to the screen. The pooled donor HUVEC and hMSC were cultured in endothelial cell growth medium 2 (PromoCell, Heidelberg, Germany, cat. C-22011) and mesenchymal stem cell growth medium 2 (PromoCell, cat. C-28009), respectively. For all experiments, HUVEC and hMSC were used at passages </=5.
For the pre-screen, cell seeding densities were determined from a titration spanning the range from 5,000 to 313 cells per well. The mct-spheroids including 60% malignant cells, 25% HUVEC and 15% MSC dispensed as a mixture into U-bottom Ultra-Low Attachment 384-well plates (Corning, NY)
High-throughput Drug Combination Screening.
Prior to their inoculation into 384-well plates, malignant cells, HUVEC, and hMSC were removed from T flasks using TrypLE express (Thermo Fisher Scientific, cat. 12605036) and harvested by centrifugation for 5 min at 233 x g. […]

[1] = curve of first compound, second compound 0.3 µM
[2] = curve of first compound, second compound 0.949 µM
[3] = curve of first compound, second compound 3 µM
[4] = curve of first compound, second compound 9.49 µM
[5] = curve of first compound, second compound 30 µM
[6] = second compound 0.3 µM, first compound 0.000316 µM
[7] = second compound 0.3 µM, first compound 0.001 µM
[8] = second compound 0.3 µM, first compound 0.00316 µM
[9] = second compound 0.3 µM, first compound 0.01 µM
[10] = second compound 0.3 µM, first compound 0.0316 µM
[11] = second compound 0.3 µM, first compound 0.1 µM
[12] = second compound 0.949 µM, first compound 0.000316 µM
[13] = second compound 0.949 µM, first compound 0.001 µM
[14] = second compound 0.949 µM, first compound 0.00316 µM
[15] = second compound 0.949 µM, first compound 0.01 µM
[16] = second compound 0.949 µM, first compound 0.0316 µM
[17] = second compound 0.949 µM, first compound 0.1 µM
[18] = second compound 3 µM, first compound 0.000316 µM
[19] = second compound 3 µM, first compound 0.001 µM
[20] = second compound 3 µM, first compound 0.00316 µM
[21] = second compound 3 µM, first compound 0.01 µM
[22] = second compound 3 µM, first compound 0.0316 µM
[23] = second compound 3 µM, first compound 0.1 µM
[24] = second compound 9.49 µM, first compound 0.000316 µM
[25] = second compound 9.49 µM, first compound 0.001 µM
[26] = second compound 9.49 µM, first compound 0.00316 µM
[27] = second compound 9.49 µM, first compound 0.01 µM
[28] = second compound 9.49 µM, first compound 0.0316 µM
[29] = second compound 9.49 µM, first compound 0.1 µM
[30] = second compound 30 µM, first compound 0.000316 µM
[31] = second compound 30 µM, first compound 0.001 µM
[32] = second compound 30 µM, first compound 0.00316 µM
[33] = second compound 30 µM, first compound 0.01 µM
[34] = second compound 30 µM, first compound 0.0316 µM
[35] = second compound 30 µM, first compound 0.1 µM
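Also: spheroids exposed to drugs for seven days before readout.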

CC(=O)Nc1cccc(-n2c(=O)n(C3CC3)c(=O)c3c(Nc4ccc(I)cc4F)n(C)c(=O)c(C)c32)c1
inactive: viability, T/C (compound 94.9 pM) 105% and 111% | viability, T/C (compound 0.0003 µM) 101% and 94.9% | viability, T/C (compound 0.000949 µM) 91% and 88.8% | viability, T/C (compound 0.003 µM) 73.6% and 75.2% | viability, T/C (compound 0.00949 µM) 72.6% and 75.3% | viability, T/C (compound 0.03 µM) 63.9% and 60.4%
> 0.03 µM: IC50 (curve of compound)

Cn1cnc2c(F)c(Nc3ccc(Br)cc3Cl)c(C(=O)NOCCO)cc21
> 3 µM: IC50 (curve of compound)
inactive: viability, T/C (compound 0.00949 µM) 101% and 110% | viability, T/C (compound 0.03 µM) 90.2% and 101% | viability, T/C (compound 0.0949 µM) 83.1% and 76.7% | viability, T/C (compound 0.3 µM) 71.4% and 79.2% | viability, T/C (compound 0.949 µM) 74.4% and 74.2% | viability, T/C (compound 3 µM) 65.5% and 64.2%

CC(C)CC(NC(=O)CNC(=O)c1cc(Cl)ccc1Cl)B1OC(=O)CC(CC(=O)O)(C(=O)O)O1 (centres undefined) + CC(C)NCC(C(=O)N1CCN(c2ncnc3c2C(C)CC3O)CC1)c1ccc(Cl)cc1
inactive: viability, T/C [6] 98.8% | viability, T/C [7] 105% | viability, T/C [8] 96% | viability, T/C [9] 94.4% | viability, T/C [10] 79.7% | viability, T/C [11] 57.7% | viability, T/C [12] 117% | viability, T/C [13] 107% | viability, T/C [14] 102% | viability, T/C [15] 98.4% | viability, T/C [16] 79.6% | viability, T/C [17] 61.1% | viability, T/C [18] 107% | viability, T/C [19] 98.8% | viability, T/C [20] 88.5% | viability, T/C [21] 98.7% | viability, T/C [22] 75.5% | viability, T/C [23] 58.4% | viability, T/C [24] 95.7% | viability, T/C [25] 96.7% | viability, T/C [26] 93% | viability, T/C [27] 89% | viability, T/C [28] 70.4% | viability, T/C [29] 56.5% | viability, T/C [30] 85.7% | viability, T/C [31] 90.5% | viability, T/C [32] 87% | viability, T/C [33] 83.3% | viability, T/C [34] 75.3% | viability, T/C [35] 57.5%
> 0.1 µM: IC50 [1] | IC50 [2] | IC50 [3] | IC50 [4] | IC50 [5]

COC1CC2CCC(C)C(O)(O2)C(=O)C(=O)N2CCCCC2C(=O)OC(C(C)CC2CCC(OCCO)C(OC)C2)CC(=O)C(C)C=C(C)C(O)C(OC)C(=O)C(C)CC(C)C=CC=CC=C1C (centres undefined) + CC(C)NCC(C(=O)N1CCN(c2ncnc3c2C(C)CC3O)CC1)c1ccc(Cl)cc1
inactive: viability, T/C [6] 110% | viability, T/C [7] 97.1% | viability, T/C [8] 81.7% | viability, T/C [9] 90.4% | viability, T/C [10] 83.7% | viability, T/C [11] 82% | viability, T/C [12] 103% | viability, T/C [13] 88.6% | viability, T/C [14] 85.9% | viability, T/C [15] 87.4% | viability, T/C [16] 87.4% | viability, T/C [17] 79.8% | viability, T/C [18] 97.4% | viability, T/C [19] 101% | viability, T/C [20] 87.6% | viability, T/C [21] 77.9% | viability, T/C [22] 81.5% | viability, T/C [23] 77.3% | viability, T/C [24] 91.4% | viability, T/C [25] 88.6% | viability, T/C [26] 81.3% | viability, T/C [27] 73.7% | viability, T/C [28] 75.2% | viability, T/C [29] 76.8% | viability, T/C [30] 93.1% | viability, T/C [31] 91.2% | viability, T/C [32] 82.8% | viability, T/C [33] 77.7% | viability, T/C [34] 79.1% | viability, T/C [35] 72.7%
> 0.1 µM: IC50 [1] | IC50 [2] | IC50 [3] | IC50 [4] | IC50 [5]

Cc1nc(NC(=O)N2CCCC2C(N)=O)sc1-c1ccnc(C(C)(C)C(F)(F)F)c1 (centres undefined) + CC(C)NCC(C(=O)N1CCN(c2ncnc3c2C(C)CC3O)CC1)c1ccc(Cl)cc1
inactive: viability, T/C [10] 106% | viability, T/C [11] 98.8% | viability, T/C (second compound 0.3 µM, first compound 0.316 µM) 85% | viability, T/C (second compound 0.3 µM, first compound 1 µM) 86.8% | viability, T/C (second compound 0.3 µM, first compound 3.16 µM) 80.9% | viability, T/C (second compound 0.3 µM, first compound 10 µM) 69.6% | viability, T/C [16] 109% | viability, T/C [17] 102% | viability, T/C (second compound 0.949 µM, first compound 0.316 µM) 86.3% | viability, T/C (second compound 0.949 µM, first compound 1 µM) 85.8% | viability, T/C (second compound 0.949 µM, first compound 3.16 µM) 80.1% | viability, T/C (second compound 0.949 µM, first compound 10 µM) 70% | viability, T/C [22] 98.8% | viability, T/C [23] 102% | viability, T/C (second compound 3 µM, first compound 0.316 µM) 85.5% | viability, T/C (second compound 3 µM, first compound 1 µM) 85.6% | viability, T/C (second compound 3 µM, first compound 3.16 µM) 78.5% | viability, T/C (second compound 3 µM, first compound 10 µM) 82.3% | viability, T/C [28] 95.8% | viability, T/C [29] 91.4% | viability, T/C (second compound 9.49 µM, first compound 0.316 µM) 85% | viability, T/C (second compound 9.49 µM, first compound 1 µM) 83.1% | viability, T/C (second compound 9.49 µM, first compound 3.16 µM) 75.7% | viability, T/C (second compound 9.49 µM, first compound 10 µM) 74.2% | viability, T/C [34] 86.4% | viability, T/C [35] 91.7% | viability, T/C (second compound 30 µM, first compound 0.316 µM) 84.9% | viability, T/C (second compound 30 µM, first compound 1 µM) 79% | viability, T/C (second compound 30 µM, first compound 3.16 µM) 81.3% | viability, T/C (second compound 30 µM, first compound 10 µM) 71.5%
> 10 µM: IC50 [1] | IC50 [2] | IC50 [3] | IC50 [4] | IC50 [5]
